According to the CheMixHub viscosity set:

Assay: xn = mol fraction of the nth substance listed

CC(=O)CC(C)C + CCCCCCCCCCO
viscosity [mPa·s], 100 kPa
Conditions	x1 = 0.0846	x1 = 0.1569	x1 = 0.2402	x1 = 0.3455	x1 = 0.4437	x1 = 0.5617	x1 = 0.6591	x1 = 0.7447	x1 = 0.8561	x1 = 0.9486
293.15 K	12.8	11.5	10.21	8.72	7.39	5.89	4.69	3.64	2.29	1.18
303.15 K	8.66	7.8	6.94	5.94	5.05	4.05	3.24	2.55	1.65	0.92
313.15 K	6.09	5.5	4.91	4.21	3.59	2.9	2.34	1.85	1.23	0.74
323.15 K	4.44	4.02	3.58	3.08	2.64	2.15	1.75	1.4	0.96	0.61

C[NH+]1CCCC1=O.Cc1ccc(S(=O)(=O)[O-])cc1 + O
viscosity [mPa·s], 100 kPa
Conditions	x1 = 0.00179	x1 = 0.003588	x1 = 0.005313	x1 = 0.008042	x1 = 0.01069	x1 = 0.01417	x1 = 0.02116	x1 = 0.02631	x1 = 0.03141
293.15 K	1.079	1.149	1.212	1.311	1.404	1.533	1.806	2.029	2.274
298.15 K	0.9575	–	1.073	1.157	–	1.358	–	1.819	2.048
303.15 K	0.8523	0.9062	0.9554	–	–	1.201	1.42	1.611	1.827
308.15 K	0.7695	0.8124	0.8523	0.9156	0.9784	–	–	1.444	1.64

CCOCC + ClCCl
298.15 K, 101 kPa
Conditions	viscosity [mPa·s]
x1 = 0.113	0.4351
x1 = 0.2227	0.4106
x1 = 0.3294	0.3839
x1 = 0.4331	0.3585
x1 = 0.5341	0.3342
x1 = 0.6322	0.3106
x1 = 0.7278	0.289
x1 = 0.8209	0.2687
x1 = 0.9116	0.2496

CC(=O)CC(C)C + CCC(C)(C)O
viscosity [mPa·s]
Conditions	298.15 K	303.15 K	308.15 K	313.15 K
101 kPa, x1 = 0.1	2.52	–	–	–
101 kPa, x1 = 0.2	1.823	–	–	–
101 kPa, x1 = 0.3	1.376	–	–	–
101 kPa, x1 = 0.4	1.1	–	–	–
101 kPa, x1 = 0.5	0.928	–	–	–
101 kPa, x1 = 0.6	0.815	–	–	–
101 kPa, x1 = 0.7	0.727	–	–	–
101 kPa, x1 = 0.8	0.65	–	–	–
101 kPa, x1 = 0.9	0.584	–	–	–
101.3 kPa, x1 = 0.1053	2.5	2.11	1.79	1.52
101.3 kPa, x1 = 0.1952	1.77	1.52	1.32	1.15
101.3 kPa, x1 = 0.305	1.37	1.21	1.07	0.951
101.3 kPa, x1 = 0.4324	1.05	0.946	0.856	0.776
101.3 kPa, x1 = 0.495	0.95	0.866	0.786	0.721
101.3 kPa, x1 = 0.6	0.813	0.747	0.69	0.64
101.3 kPa, x1 = 0.7004	0.719	0.671	0.627	0.587
101.3 kPa, x1 = 0.7937	0.641	0.603	0.569	0.538
101.3 kPa, x1 = 0.9001	0.589	0.558	0.529	0.503
